Results on 20 compounds are retold here after BindingDB's records for doi:10.1021/jm001024j (Uppsala University, 2001).

For this experiment, the target named is T1, Dimer of Gag-Pol polyprotein [489-587] (Human immunodeficiency virus 1, UniProt P12497).
T1 construct: 489-587
Put plainly: Protease Inhibition Assay. As to conditions: pH 5; 30 °C.
The term Ki denotes a dissociation constant, usually derived from enzyme kinetics or from competition with a known ligand. For `O=S1(=O)N(Cc2cccc(I)c2)[C@H](COc2ccccc2)[C@H](O)[C@@H](O)[C@@H](COc2ccccc2)N1Cc1cccc(I)c1`, affinity was put at a Ki of 93 nM.
With `CC(N=O)c1cccc(CN2[C@H](COc3ccccc3)[C@H](O)[C@@H](O)[C@@H](COc3ccccc3)N(Cc3cccc(C(C)N=O)c3)S2(=O)=O)c1` (stereo not given in full) the figure was 3.4 nM.
As to `CC(=O)c1cccc(CN2[C@H](COc3ccccc3)[C@H](O)[C@@H](O)[C@@H](COc3ccccc3)N(Cc3cccc(C(C)=O)c3)S2(=O)=O)c1`, the affinity corresponds to a Ki of 59 nM.
In turn, `O=S1(=O)N(Cc2cccc(CCO)c2)[C@H](COc2ccccc2)[C@H](O)[C@@H](O)[C@@H](COc2ccccc2)N1Cc1cccc(CCO)c1` came in with an inhibition constant (Ki) of 43 nM.
Take `O=S1(=O)N(Cc2ccc(CO)cc2)[C@H](COc2ccccc2)[C@H](O)[C@@H](O)[C@@H](COc2ccccc2)N1Cc1ccc(CO)cc1`: the affinity, expressed as Ki, was 3.1 nM.
`COC(=O)c1ccc(CN2[C@H](COc3ccccc3)[C@H](O)[C@@H](O)[C@@H](COc3ccccc3)N(Cc3ccc(C(=O)OC)cc3)S2(=O)=O)cc1` gave an inhibitory constant (Ki) of 84 nM.
With `O=C(CN1[C@H](COc2ccccc2)[C@H](O)[C@@H](O)[C@@H](COc2ccccc2)N(Cc2ccc(-c3cccs3)cc2)S1(=O)=O)Nc1nccs1` [2-[(3R,4S,5S,6R)-4,5-dihydroxy-1,1-dioxo-3,6-bis(phenoxymethyl)-7-{[4-(thiophen-2-yl)phenyl]methyl}-1,2,7-thiadiazepan-2-yl]-N-(1,3-thiazol-2-yl)acetamide] the figure was 1800 nM; with `CNC(=O)CN1[C@H](COc2ccccc2)[C@H](O)[C@@H](O)[C@@H](COc2ccccc2)N(Cc2ccccc2)S1(=O)=O` [2-[(3R,4S,5S,6R)-7-benzyl-4,5-dihydroxy-1,1-dioxo-3,6-bis(phenoxymethyl)-1,2,7-thiadiazepan-2-yl]-N-methylacetamide], 1400 nM.
For the compound `CNC(=O)c1cccc(CN2[C@H](COc3ccccc3)[C@H](O)[C@@H](O)[C@@H](COc3ccccc3)N(Cc3cccc(C(=O)NC)c3)S2(=O)=O)c1` [(3R,4S,5S,6R)-2,7-Bis[3-(N-methylcarbamoyl)benzyl]-3,6-bis(phenoxymethyl)-4,5-dihydroxy-1,2,7-thiadiazepine 1,1-Dioxide], the Ki is 39 nM.
In turn, `CNC(=O)CN1[C@H](COc2ccccc2)[C@H](O)[C@@H](O)[C@@H](COc2ccccc2)N(CC(=O)NC)S1(=O)=O` [(3R,4S,5S,6R)-2,7-Bis[(N-methylcarbamoyl)methyl]-3,6-bis(phenoxymethyl)-4,5-dihydroxy-1,2,7-thiadiazepine 1,1-Dioxide] had a Ki of 25000 nM.
`CN1[C@H](COc2ccccc2)[C@H](O)[C@@H](O)[C@@H](COc2ccccc2)N(C)S1(=O)=O` [(3R,4S,5S,6R)-2,7-Bismethyl-3,6-bis(phenoxymethyl)-4,5-dihydroxy-1,2,7-thiadiazepine 1,1-Dioxide] yielded a Ki of 710 nM.
`COC(Cc1cccc(CN2[C@H](COc3ccccc3)[C@H](O)[C@@H](O)[C@@H](COc3ccccc3)N(Cc3cccc(CC(OC)OC)c3)S2(=O)=O)c1)OC` [(3R,4S,5S,6R)-2,7-bis({[3-(2,2-dimethoxyethyl)phenyl]methyl})-4,5-dihydroxy-3,6-bis(phenoxymethyl)-1,2,7-thiadiazepane-1,1-dione]: the Ki turned out to be 540 nM.
With `O=S1(=O)N(Cc2ccccc2)[C@H](COc2ccccc2)[C@H](O)[C@@H](O)[C@@H](COc2ccccc2)N1Cc1ccc(-c2cccs2)cc1` [(3R,4S,5S,6R)-2-benzyl-4,5-dihydroxy-3,6-bis(phenoxymethyl)-7-{[4-(thiophen-2-yl)phenyl]methyl}-1,2,7-thiadiazepane-1,1-dione] the figure was 63 nM; with `O=S1(=O)N(Cc2cccc(-c3cccs3)c2)[C@H](COc2ccccc2)[C@H](O)[C@@H](O)[C@@H](COc2ccccc2)N1Cc1cccc(-c2cccs2)c1` [(3R,4S,5S,6R)-3,6-Bis(phenoxymethyl)-2,7-bis[3-(2-thienyl)benzyl]-4,5-dihydroxy-1,2,7-thiadiazepine 1,1-Dioxide], 2200 nM; with `O=C(CN1[C@H](COc2ccccc2)[C@H](O)[C@@H](O)[C@@H](COc2ccccc2)N(Cc2cccc(-c3cccs3)c2)S1(=O)=O)Nc1nccs1` [(3R,4S,5S,6R)-3,6-Bis(phenoxymethyl)-4,5-dihydroxy-2-[(N-2-thiazolylcarbamoyl)methyl]-7-[3-(2-thienyl)benzyl]-1,2,7-thiadiazepine 1,1-Dioxide], 140 nM.
In turn, `O=C(CN1[C@H](COc2ccccc2)[C@H](O)[C@@H](O)[C@@H](COc2ccccc2)N(Cc2cccc(I)c2)S1(=O)=O)Nc1nccs1` [(3R,4S,5S,6R)-3,6-Bis(phenoxymethyl)-4,5-dihydroxy-7-(3-iodobenzyl)-2-[(N-2-thiazolylcarbamoyl)methyl]-1,2,7-thiadiazepine 1,1-Dioxide] showed a Ki of 510 nM.
With `O=C(CN1[C@H](COc2ccccc2)[C@H](O)[C@@H](O)[C@@H](COc2ccccc2)N(Cc2ccccc2)S1(=O)=O)Nc1nccs1` [(3R,4S,5S,6R)-3,6-Bis(phenoxymethyl)-4,5-dihydroxy-7-benzyl-2-[(N-2-thiazolylcarbamoyl)methyl]-1,2,7-thiadiazepine 1,1-Dioxide] the figure was 350 nM; with `CN1[C@H](COc2ccccc2)[C@H](O)[C@@H](O)[C@@H](COc2ccccc2)N(Cc2ccccc2)S1(=O)=O` [(3R,4S,5S,6R)-3,6-Bis(phenoxymethyl)-4,5-dihydroxy-7-methyl-2-benzyl-1,2,7-thiadiazepine 1,1-Dioxide], 510 nM.
`O=S1(=O)N(Cc2ccc(-c3cccs3)cc2)[C@H](COc2ccccc2)[C@H](O)[C@@H](O)[C@@H](COc2ccccc2)N1Cc1ccc(-c2cccs2)cc1` [(3R,4S,5S,6R)-4,5-dihydroxy-3,6-bis(phenoxymethyl)-2,7-bis({[4-(thiophen-2-yl)phenyl]methyl})-1,2,7-thiadiazepane-1,1-dione]: the Ki is 920 nM.
Compound `O=S1(=O)N(Cc2ccc(-c3cccs3)cc2)[C@H](COc2ccccc2)[C@H](O)[C@@H](O)[C@@H](COc2ccccc2)N1Cc1cccc(-c2cccs2)c1` [(3R,4S,5S,6R)-4,5-dihydroxy-3,6-bis(phenoxymethyl)-7-{[3-(thiophen-2-yl)phenyl]methyl}-2-{[4-(thiophen-2-yl)phenyl]methyl}-1,2,7-thiadiazepane-1,1-dione] came in with a Ki of 6000 nM.
